Activity calls are given as the source filed them. The calls are words filed in the database; no cut-off is given here. A value given as a limit tells only on which side of the number the result lay.

We go through nine compounds from ChEMBL document CHEMBL4619709, “Synthesis and in-vitro anti-cancer evaluations of multi-methoxylated asymmetrical diarylpentanoids as intrinsic apoptosis inducer against colorectal cancer” (Bioorg Med Chem Lett, 2020).

For data set [1], the system named is NCI-H508. Kind of data set: Antiproliferative activity against human NCI-H508 cells at 10 uM after 72 hrs by MTT assay. The data set is classed as functional, cell-based. (In general: Formazan colour is commonly taken as a measure of viable cells.)
Data set [2] deals with RKO. Kind of data set: Antiproliferative activity against human RKO cells at 10 uM after 72 hrs by MTT assay. The data set is classed as functional, cell-based.
Data set [3] deals with SW-620. Kind of data set: Antiproliferative activity against human SW620 cells at 10 uM after 72 hrs by MTT assay. The data set is classed as functional, cell-based.
The subject of data set [4] is HT-29. Kind of data set: Antiproliferative activity against human HT-29 cells at 10 uM after 72 hrs by MTT assay. The data set is classed as functional, cell-based.
For data set [5], the system named is LoVo. Kind of data set: Antiproliferative activity against human LoVo cells at 10 uM after 72 hrs by MTT assay. Type of data set: functional, cell-based.
The subject of data set [6] is T84. Kind of data set: Antiproliferative activity against human T84 cells at 10 uM after 72 hrs by MTT assay. Type of data set: functional, cell-based.
A short description of data set [7]: Therapeutic index, ratio of IC50 for human NHDF cells to IC50 for human NCI-H508 cells after 72 hrs. The settings on record: NHDF cells versus NCI-H508 cells, read-out: Ratio IC50. Type of data set: toxicity.
A short description of data set [8]: Therapeutic index, ratio of IC50 for human NHDF cells to IC50 for human RKO cells after 72 hrs. Particulars: NHDF cells versus RKO cells, read-out: Ratio IC50. Type of data set: toxicity.
Data set [9] in a line: Therapeutic index, ratio of IC50 for human NHDF cells to IC50 for human SW620 cells after 72 hrs. The settings on record: NHDF cells versus SW620 cells, read-out: Ratio IC50. Type of data set: toxicity.
Data set [10] is described as follows: Therapeutic index, ratio of IC50 for human NHDF cells to IC50 for human HT-29 cells after 72 hrs. The data set is classed as toxicity. The settings on record: NHDF cells versus HT-29 cells, read-out: Ratio IC50.
Data set [11] can be described thus: Therapeutic index, ratio of IC50 for human NHDF cells to IC50 for human LoVo cells after 72 hrs. Type of data set: toxicity. Particulars: NHDF cells versus LoVo cells, read-out: Ratio IC50.
Data set [12] in a line: Therapeutic index, ratio of IC50 for human NHDF cells to IC50 for human T84 cells after 72 hrs. The data set is classed as toxicity. Particulars: NHDF cells versus T84 cells, read-out: Ratio IC50.
Another data set concerns NHDF. Kind of data set: Cytotoxicity against human NHDF cells assessed as reduction in cell viability. Type of data set: cell-based.
Data set [13] concerns NCI-H508. Kind of data set: Antiproliferative activity against human NCI-H508 cells assessed as reduction in cell viability after 72 hrs by MTT assay. Particulars: NCI-H508, 72 h. Type of data set: functional, cell-based.
The subject of data set [14] is RKO. Kind of data set: Antiproliferative activity against human RKO cells assessed as reduction in cell viability after 72 hrs by MTT assay. Type of data set: functional, cell-based.
For data set [15], the system named is HT-29. Kind of data set: Antiproliferative activity against human HT-29 cells assessed as reduction in cell viability after 72 hrs by MTT assay. Type of data set: functional, cell-based. Particulars: HT-29, 72 h.
In data set [16] the test system is SW-620. Kind of data set: Antiproliferative activity against human SW620 cells assessed as reduction in cell viability after 72 hrs by MTT assay. The data set is classed as functional, cell-based. Particulars: SW-620, 72 h.
The subject of data set [17] is LoVo. Kind of data set: Antiproliferative activity against human LoVo cells assessed as reduction in cell viability after 72 hrs by MTT assay. Type of data set: functional, cell-based.
The test system of data set [18] is T84. Kind of data set: Antiproliferative activity against human T84 cells assessed as reduction in cell viability after 72 hrs by MTT assay. Particulars: T84, 72 h. Type of data set: functional, cell-based.

The IC50 is the point on the concentration scale where inhibition reaches its midpoint. Turning to `COc1cc(/C=C2\CCC/C(=C\c3ccccc3F)C2=O)cc(OC)c1OC`, the outcome in the data set with NCI-H508 [1], in the data set with RKO [2], with SW-620 [3], with HT-29 [4], with LoVo [5] and in the data set with T84 [6] was Active. Further, the selectivity ratio at 72 h in data set [7], in data set [8], in [9], in [10], in data set [11] and in data set [12] was 1.8 to 2.7 throughout. Moreover, the concentration for half-maximal inhibition (IC50) worked out at 4 µM in the data set with NHDF; 2 µM in the data set on NCI-H508 [13]; 1.5 µM with RKO [14]; 1.6 µM in the data set with HT-29 [15]; 2.1 µM in the data set on SW-620 [16]; 1.9 µM in the data set with LoVo [17]. For the same compound, the half-maximal inhibitory concentration (IC50) in the data set with T84 [18] came out at 2.2 µM.

For the compound `COc1cc(/C=C2\CCC/C(=C\c3ccc(O)c(O)c3)C2=O)cc(OC)c1OC`, the outcome in the data set with NCI-H508 [1], with RKO [2], in the data set on SW-620 [3], in the data set on HT-29 [4], with LoVo [5] and in the data set with T84 [6] was Active. The selectivity ratio at 72 h in data set [7], in data set [8], in data set [9], in [10], in data set [11] and in data set [12] was 1.1 to 3.3 in each case. The concentration for half-maximal inhibition (IC50) in the data set on NHDF was found to be 9 µM; in the data set with NCI-H508 [13] it was 7 µM; in the data set on RKO [14], 3.1 µM; in the data set on HT-29 [15], 8.5 µM; in the data set on SW-620 [16] it was 3.2 µM; in the data set with LoVo [17], 2.7 µM. The IC50 in the data set with T84 [18] was 3.6 µM.

With `COc1cc(/C=C2\CCC/C(=C\c3ccccc3Br)C2=O)cc(OC)c1OC`, the outcome in the data set on NCI-H508 [1], in the data set on RKO [2], in the data set on SW-620 [3], with HT-29 [4], in the data set on LoVo [5] and with T84 [6] was Active. For the same compound, the selectivity ratio at 72 h in data set [7], in data set [8], in data set [9], in data set [10], in data set [11] and in data set [12] was 3 to 5 throughout. Moreover, the IC50 in the data set on NHDF is 12.4 µM; with NCI-H508 [13] it was 2.7 µM; in the data set on RKO [14], 2.5 µM; in the data set on HT-29 [15] it was 2.8 µM; with SW-620 [16], 3.3 µM; with LoVo [17] it was 2.8 µM. For the same compound, in the data set on T84 [18], the IC50 was 4.2 µM.

Turning to `COc1cc(/C=C2\CCC/C(=C\c3cccc(O)c3)C2=O)cc(OC)c1OC`, the result in the data set on NCI-H508 [1], in the data set with RKO [2], with SW-620 [3], with HT-29 [4], in the data set on LoVo [5] and in the data set with T84 [6] was Active. The selectivity ratio at 72 h in [7], in [8], in [9], in data set [10], in data set [11] and in data set [12] was 3.3 to 5.3 each time. Moreover, the IC50 was 25.3 µM in the data set on NHDF; 5.6 µM with NCI-H508 [13]; 6.5 µM with RKO [14]; 7.6 µM in the data set on HT-29 [15]; greater than 10 µM in the data set on SW-620 [16]; 4.8 µM in the data set on LoVo [17]. Further, in the data set on T84 [18], the half-maximal inhibitory concentration (IC50) was 6.5 µM.

`COc1ccc(/C=C2\CCC/C(=C\c3cc(OC)c(OC)c(OC)c3)C2=O)cc1OC`: the result with NCI-H508 [1], in the data set on RKO [2], in the data set on SW-620 [3], in the data set on HT-29 [4], in the data set with LoVo [5] and with T84 [6] was Active. The selectivity ratio at 72 h in data set [7], in [8], in data set [9], in data set [10], in data set [11] and in data set [12] was 3.1 to 4.5 in each case. Besides, the IC50 with NCI-H508 [13] turned out to be 1.7 µM; in the data set with RKO [14] it was 1.3 µM; in the data set with HT-29 [15], 1.5 µM; in the data set with SW-620 [16], 1.6 µM; in the data set with LoVo [17], 1.7 µM; with T84 [18] it was 1.9 µM.

On to `COc1ccccc1/C=C1\CCC/C(=C\c2cc(OC)c(OC)c(OC)c2)C1=O`, for which the result in the data set on NCI-H508 [1], with RKO [2], with SW-620 [3], in the data set with HT-29 [4], in the data set with LoVo [5] and in the data set on T84 [6] was Active. The selectivity ratio at 72 h in [7], in data set [8], in data set [9], in data set [10], in data set [11] and in data set [12] was 3.6 to 7.2 in each case. Further, the IC50 with NHDF was 7.9 µM; in the data set on NCI-H508 [13], 2.2 µM; in the data set with RKO [14] it was 1.2 µM; with HT-29 [15], 1.2 µM; with SW-620 [16], 2 µM; with LoVo [17], 1.1 µM. Further, the IC50 in the data set with T84 [18] worked out at 2.1 µM.

Consider `COc1cc(/C=C2\CCC/C(=C\c3ccc(F)c(F)c3)C2=O)cc(OC)c1OC`, for which the result with NCI-H508 [1], in the data set on RKO [2], in the data set on SW-620 [3], in the data set on HT-29 [4], in the data set with LoVo [5] and with T84 [6] was Active. Also, the selectivity ratio at 72 h in data set [7], in data set [8], in data set [9], in data set [10], in data set [11] and in data set [12] was 2.7 to 6.5 throughout. The IC50 in the data set with NHDF turned out to be 11.1 µM; in the data set on NCI-H508 [13], 4 µM; in the data set on RKO [14] it was 2.2 µM; in the data set on HT-29 [15] it was 1.7 µM; in the data set on SW-620 [16], 4.1 µM; in the data set with LoVo [17] it was 2.3 µM. Moreover, in the data set with T84 [18], the half-maximal inhibitory concentration (IC50) was found to be 3.5 µM.

On to `COc1cccc(/C=C2\CCC/C(=C\c3cc(OC)c(OC)c(OC)c3)C2=O)c1OC`, for which the outcome with NCI-H508 [1], with RKO [2], with SW-620 [3], with HT-29 [4], in the data set with LoVo [5] and in the data set with T84 [6] was Active. Further, the selectivity ratio at 72 h in data set [7], in data set [8], in data set [9], in data set [10], in [11] and in data set [12] was 3.9 to 7.2 throughout. Also, the IC50 with NHDF worked out at 18.8 µM; with NCI-H508 [13], 4.8 µM; in the data set with RKO [14] it was 3.6 µM; with HT-29 [15], 3.2 µM; in the data set on SW-620 [16], 4.5 µM; in the data set with LoVo [17], 2.6 µM. Moreover, in the data set with T84 [18], the IC50 was determined as 3.9 µM.

`O=c1[nH]cc(F)c(=O)[nH]1` [FLUOROURACIL]: the IC50 is greater than 50 µM in the data set on NHDF; 8.8 µM with NCI-H508 [13]; 2.9 µM in the data set with RKO [14]; greater than 10 µM in the data set with HT-29 [15]; greater than 10 µM in the data set on SW-620 [16]; 2.7 µM with LoVo [17]. Also, the half-inhibitory concentration (IC50) in the data set on T84 [18] was greater than 10 µM.
